Peptide text beside a SMILES is read from it. * marks the point of attachment. Cbz = O=C(OCc1ccccc1)*
Tests used:
Tau::GFP fusion protein = assay: Intracellular Tau::GFP fluorescence in stable inducible HEK293 cells with proteasome or lysosome inhibitor; assay type: cell-based; conditions: inhibitor 25 uM for 4 h before fixation
Procedure: FIG. 7A Stable inducible cell line HEK293 that express a Tau::GFP fusion protein was transfected with Control Myc or Numb72::Myc, and the Tau::GFP expression was activated by adding Doxycycline 6 h later. The cells were fixed 48 h later and stained for Myc. FIG. 7B. The mean intensity (±SEM) of intracellular Tau::GFP fluorescence in transfected cells was quantified. Cells were treated with vehicle, MG132 (a proteasome inhibitor, 25 uM) or Chloroquine (a lysosome inhibitor, 25 uM) for 4 h before fixation and Myc staining. Quantification represents mean intensity +/− SEM, *p≤0.01; Anova 1-way test.
The potential role of the proteasome and of the lysosome on the ability of Numb to reduce Tau levels was assessed. A stable inducible cell line (HEK293) expressing a Tau::GFP fusion protein was transfected with
Numb72 or a control empty vector. The intracellular Tau::GFP levels was compared when the cells were treated with a proteasome inhibitor (MG132), a lysosome inhibitor (Chloroquine) or a control (vehicle). […] (FIGS. 7A-B).

RGCs = assay: RGC survival after intravitreal NMDA in Numb cKO and control mice; assay type: in vivo, mouse; conditions: sublethal doses of NMDA in the eyes, 3 days later, Numb cKO mice compared to control
Procedure: FIGS. 5A-C: Down regulation of Tau in Numb cKO RGCs rescues survival to control levels after NMDA-mediated excitotoxicity. FIG. 5A. Immunostaining for Brn3b on retina flat mounts in control and cKO 5-month-old mice 3 days after injection of saline (left panels, FIG. 5A) or NMDA (10 mM; right panels FIG. 5A). Images were taken in the ganglion cell layer. FIGS. 5B and C. Quantification of the number of Brn3b+RGCs per mm^2 in control and cKO mice 3 days after intravitreal injection of saline (FIG. 5B) or NMDA (FIG. 5C). Error bars represent SEM, * p≤0.05, n.s. non-significant; Student's t test. FIG. 5D. Analysis of Tau levels by western blot in retinal extract 24 h, 48 h or 72 h after injection of siRNA against Tau in the eye. […] FIG. 5E. […] Quantification of number of Brn3b RGC per mm^2 in control and cKO mice 72 h after injection. […]
RGCs survival was assessed by counting Brn3b-positive cells on retina flat mounts the within four square (212 um×212 um) areas around the optic nerve disc, and averaging this number per retina and calculate with the area by multiplied by the total area of square. Cell type quantification in retinal section were made by averaging the total number of positive cells for specific markers in a […] region of the central and peripheral retina on 4 different retinal sections per animal. […]

Tau = assay: Western blot of Tau fusion protein levels in HEK293T cells co-expressing Numb isoforms; assay type: cell-based; conditions: 48 hours after transfection
Excerpt: FIGS. 6A-I: Isoform Numb-72 interacts with Tau and regulates Tau level. FIG. 6A. Schematic of 4 Numb isoforms, differing with the presence or the absence of an insertion (arrowhead) in PTB domain arrowhead, and the presence or the absence of an insertion in the proline-rich region (PRR). FIG. 6B. Coimmunoprecipitation of Tau and 4 isoforms of Numb in HEK293 cells. Each Numb isoform was transfected in HEK293T cells together with a flag-tagged version of Tau and immunoprecipitation was perform 24 hours later with a flag antibody and blotted for Numb. […] FIG. 6C. Detection of Tau::GFP level in presence of 4 isoforms of Numb by western blot in HEK293. All the Numb isoforms were transfected with a Tau::GFP fusion protein in HEK293T cells and the levels of Tau::GFP was analysed by western blot 48 hours after transfection. FIG. 6D. Schematic representation of DNA construct of a human-medulloblastoma-derived cell line (DAOY) expressing human Tau fused with EGFP (Lasagna-Reeves et al., 2016). Additionally, this cell line expresses DsRed upstream of an internal ribosomal entry site (IRES), which is translated independently of the Tau-GFP protein. DsRed-IRES-Tau::EGFP expressing cells were used to assess the abundance of Tau by monitoring the Tau-GFP to DsRed fluorescence ratio. FIG. 6E. DsRed and Tau::EGF expression in Daoy cells, transfected with Myc only construct. FIGS. 6F-J. Fluorescence-activated cell sorting (FACs) analysis of the 4 Numb isoforms affected 3 days after transfection on ratio DsRed versus DsRed and GFP-positives cells compared to the control (Myc-Tag). FIG. 6K Quantification represents fold change for 5 experiments, +/− SEM, **p≤0.001; n.s. non-significant Anova 1-way test.
Numb72::Myc. HEK293T cells were transfected with Jet Prime using the following constructs Tau::Flag, Tau::GFP, Numb65, Numb66, Numb71 and Numb72.
Cells were harvested, and lysed in a NP-40 buffer (50 mm TRIS, pH 8.0, 150 mm NaCl, 1.0% NP-40 with Complete Protease Inhibitor Cocktail (Roche)). For immunoblotting, 40 μg of protein samples for in vivo blot and 10 ug for in vitro blot were loaded on a 10% acrylamide SDS-PAGE gels for separation by electrophoresis migration and then transferred onto PVDF membranes using transblot machine (Millipore). […] The primary antibody was detected with an HRP-conjugated goat anti-rabbit (1:10,000; Jackson Immunoresearch) in 0.5% dry milk in TBST. […]
To determine whether increasing the levels of Numb could affect the levels of Tau, the inventors co-expressed all isoforms of Numb together with a Tau::Venus fusion protein in HEK293T cells and analyzed the levels of Tau::Venus by western blot 48 hours after transfection.

Molecule | effect of inhibitor on the ability of Numb72 to reduce Tau::GFP levels (Tau::GFP fusion protein) | levels of Tau::Venus by western blot (Tau) | also measured
CCN(CC)CCCC(C)Nc1ccnc2cc(Cl)ccc12 (stereo not drawn) [Chloroquine] | neither the proteasome inhibitor nor the lysosome inhibitor abolished the ability of Numb72 to reduce Tau::GFP levels |  | 
CC(C)C[C@@H](C=O)NC(=O)[C@H](CC(C)C)NC(=O)[C@H](CC(C)C)NC(=O)OCc1ccccc1 [MG132] (Cbz-Leu-Leu-Leu-aldehyde) | neither the proteasome inhibitor nor the lysosome inhibitor abolished the ability of Numb72 to reduce Tau::GFP levels |  | 
CN[C@H](CC(=O)O)C(=O)O [NMDA, N-methyl-D-aspartate] |  |  | RGC numbers (RGCs): two-fold reduction of RGC numbers
Numb-71: 71 kDa Numb isoform with short PTB domain and long PRR; human isoform 3 (SEQ ID NO: 6) (protein, homo sapiens) MNKLRQSFRRKKDVYVPEASRPHQWQTDEEGVRTGKCSFPVKYLGHVEVDESRGMHICEDAVKRLKATGKKAVKAVLWVSADGLRVVDEKTKDLIVDQTIEKVSFCAPDRNFDRAFSYICRDGTTRRWICHCFMAVKDTGERLSHAVGCAFAACLERKQKREKECGVTATFDASRTTFTREGSFRVTTATEQAEREEIMKQMQDAKKAETDKIVVGSSVAPGNTAPSPSSPTSPTSDATTSLEMNNPHAIPRRHAPIEQLARQGSFRGFPALSQKMSPFKRQLSLRINELPSTMQRKTDFPIKNAVPEVEGEAESISSLCSQITNAFSTPEDPFSSAPMTKPVTVVAPQSPTFQANGTDSAFHVLAKPAHTALAPVAMPVRETNPWAHAPDAANKEIAATCSGTEWGQSSGAASPGLFQAGHRRTPSEADRWLEEVSKSVRAQQPQASAAPLQPVLQPPPPTAISQPASPFQGNAFLTSQPVPVGVVPALQPAFVPAQSYPVANGMPYPAPNVPVVGITPSQMVANVFGTAGHPQAAHPHQSPSLVRQQTFPHYEASSATTSPFFKPPAQHLNGSAAFNGVDDGRLASADRHTEVPTGTCPVDPFEAQWAALENKSKQRTNPSPTNPFSSDLQKTFEIEL |  | did not affect Tau levels | 
Numb-65: 65 kDa Numb isoform with short PTB domain and short PRR; human isoform 4 (SEQ ID NO: 7) (protein, homo sapiens) MNKLRQSFRRKKDVYVPEASRPHQWQTDEEGVRTGKCSFPVKYLGHVEVDESRGMHICEDAVKRLKATGKKAVKAVLWVSADGLRVVDEKTKDLIVDQTIEKVSFCAPDRNFDRAFSYICRDGTTRRWICHCFMAVKDTGERLSHAVGCAFAACLERKQKREKECGVTATFDASRTTFTREGSFRVTTATEQAEREEIMKQMQDAKKAETDKIVVGSSVAPGNTAPSPSSPTSPTSDATTSLEMNNPHAIPRRHAPIEQLARQGSFRGFPALSQKMSPFKRQLSLRINELPSTMQRKTDFPIKNAVPEVEGEAESISSLCSQITNAFSTPEDPFSSAPMTKPVTVVAPQSPTFQGTEWGQSSGAASPGLFQAGHRRTPSEADRWLEEVSKSVRAQQPQASAAPLQPVLQPPPPTAISQPASPFQGNAFLTSQPVPVGVVPALQPAFVPAQSYPVANGMPYPAPNVPVVGITPSQMVANVFGTAGHPQAAHPHQSPSLVRQQTFPHYEASSATTSPFFKPPAQHLNGSAAFNGVDDGRLASADRHTEVPTGTCPVDPFEAQWAALENKSKQRTNPSPTNPFSSDLQKTFEIEL |  | did not affect Tau levels | 
Numb-66: 66 kDa Numb isoform with long PTB domain and short PRR; human isoform 2 (SEQ ID NO: 3) (protein, homo sapiens) MNKLRQSFRRKKDVYVPEASRPHQWQTDEEGVRTGKCSFPVKYLGHVEVDESRGMHICEDAVKRLKAERKFFKGFFGKTGKKAVKAVLWVSADGLRVVDEKTKDLIVDQTIEKVSFCAPDRNFDRAFSYICRDGTTRRWICHCFMAVKDTGERLSHAVGCAFAACLERKQKREKECGVTATFDASRTTFTREGSFRVTTATEQAEREEIMKQMQDAKKAETDKIVVGSSVAPGNTAPSPSSPTSPTSDATTSLEMNNPHAIPRRHAPIEQLARQGSFRGFPALSQKMSPFKRQLSLRINELPSTMQRKTDFPIKNAVPEVEGEAESISSLCSQITNAFSTPEDPFSSAPMTKPVTVVAPQSPTFQGTEWGQSSGAASPGLFQAGHRRTPSEADRWLEEVSKSVRAQQPQASAAPLQPVLQPPPPTAISQPASPFQGNAFLTSQPVPVGVVPALQPAFVPAQSYPVANGMPYPAPNVPVVGITPSQMVANVFGTAGHPQAAHPHQSPSLVRQQTFPHYEASSATTSPFFKPPAQHLNGSAAFNGVDDGRLASADRHTEVPTGTCPVDPFEAQWAALENKSKQRTNPSPTNPFSSDLQKTFEIEL |  | significantly reduced the levels of Tau | 

Reference: US12186353B2, “Method of reducing neuronal microtubule binding protein Tau (Tau) levels” (ADAERATA, LIMITED PARTNERSHIP, priority 2018, dated 2025)
